Values of other authors as cited in paper PMC7770833, “Design, Synthesis, and Biological Evaluation of a Series of Oxazolone Carboxamides as a Novel Class of Acid Ceramidase Inhibitors” (Journal of Medicinal Chemistry, 2020).
Where two headings read alike, the source gives them in different places.

What was measured:
[1] = molecular target: human ceramidase (hCDase); conditions: in SKOV3 cells; cited from earlier work
AC [2] = conditions: HaCaT cell lysates; cited from earlier work
AC [3] = conditions: HL-60 cell lysates; cited from earlier work

SMILES: COc1ccc(/C=C/C(=O)c2c(-c3ccccc3)c3cc(C)ccc3[nH]c2=O)cc1 [Ceranib-1]
- IC50 [1]: 55 µM

SMILES: CCCCCCCCCCCCCC(=O)N[C@H](CO)[C@H](O)c1ccc([N+](=O)[O-])cc1 [Compound B13]
- IC50 (AC [2]): ~10 µM

SMILES: CCCCCCCCCCCCCC(=O)N[C@H](C)[C@@H](O)c1ccccc1 [D-e-MAPP, D-erithro-2-(N-myristoylamino)-1-phenyl-1-propanol]
- IC50 (AC [3]): > 500 µM
